PubChem BioAssay AID256 (DTP/NCI, 2004)
Several values for one entry are separate records, joined by “and”; a condition that tells them apart may be missing. Equal entries are not always repeated. Inconclusive results and toxic doses are left out.

System: CD2F1 mice, L1210 leukemia ip, survival T/C
Experiment: NCI In Vivo Anticancer Drug Screen. Data for tumor model L1210 Leukemia (intraperitoneal) in CD2F1 (CDF1) mice
Settings: higher = longer survival
In short: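 Vehicle-treated tumor-bearing mice served as controls (C) for compound-treated mice (T). Reported figure is T divided by C.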

SMILES: O=P1(N(CCCl)CCCl)NCCCO1 (centres undefined)
- T/C (endpoint: mean survival time, dose: 10.0 mg/kg/injection, schedule: Q01DX009 (ip), vehicle: saline): 124 % of control
- T/C (endpoint: mean survival time, dose: 12.5 mg/kg/injection, schedule: Q01DX005 (ip), vehicle: water): 120 % of control and 122 % of control
- T/C (endpoint: mean survival time, dose: 12.5 mg/kg/injection, schedule: Q01DX009 (ip), vehicle: saline): 114 % of control and 123 % of control
- T/C (endpoint: mean survival time, dose: 20.0 mg/kg/injection, schedule: Q01DX009 (ip), vehicle: saline): 122 % of control
- T/C (endpoint: mean survival time, dose: 20.0 mg/kg/injection, schedule: Q03DX003 (ip), vehicle: saline): 124 % of control
- T/C (endpoint: mean survival time, dose: 20.0 mg/kg/injection, schedule: Q04DX003 (ip), vehicle: saline): 114 % of control and 115 % of control
- T/C (endpoint: mean survival time, dose: 25.0 mg/kg/injection, schedule: Q01DX001 (ip), vehicle: DMSO): 115 % of control
- T/C (endpoint: mean survival time, dose: 30.0 mg/kg/injection, schedule: Q04DX003 (ip), vehicle: water): 113 % of control
- T/C (endpoint: mean survival time, dose: 31.3 mg/kg/injection, schedule: Q01DX001 (ip), vehicle: DMSO): 114 % of control
- T/C (endpoint: mean survival time, dose: 31.3 mg/kg/injection, schedule: Q01DX001 (ip), vehicle: saline): 113 % of control
- T/C (endpoint: mean survival time, dose: 38.9 mg/kg/injection, schedule: Q01DX001 (ip), vehicle: water): 119 % of control
- T/C (endpoint: mean survival time, dose: 40.0 mg/kg/injection, schedule: Q01DX007 (ip), vehicle: saline): 163 % of control
- T/C (endpoint: mean survival time, dose: 40.0 mg/kg/injection, schedule: Q01DX009 (ip), vehicle: saline): 170 % of control
- T/C (endpoint: mean survival time, dose: 40.0 mg/kg/injection, schedule: Q03DX003 (ip), vehicle: saline): 151 % of control
- T/C (endpoint: mean survival time, dose: 40.0 mg/kg/injection, schedule: Q04DX003 (ip), vehicle: saline): 155 % of control
- T/C (endpoint: mean survival time, dose: 50.0 mg/kg/injection, schedule: Q01DX001 (ip), vehicle: DMSO): 117 % of control
- T/C (endpoint: mean survival time, dose: 50.0 mg/kg/injection, schedule: Q01DX001 (ip), vehicle: Klucel (hydroxypropylcellulose) (HPC)): 113 % of control
- T/C (endpoint: mean survival time, dose: 50.0 mg/kg/injection, schedule: Q01DX001 (ip), vehicle: other): 115 % of control
- T/C (endpoint: mean survival time, dose: 50.0 mg/kg/injection, schedule: Q01DX009 (ip), vehicle: saline): 165 % of control and 173 % of control
- T/C (endpoint: mean survival time, dose: 62.5 mg/kg/injection, schedule: Q01DX001 (ip), vehicle: Klucel (hydroxypropylcellulose) (HPC)): 122 % of control
- T/C (endpoint: mean survival time, dose: 62.5 mg/kg/injection, schedule: Q01DX001 (ip), vehicle: saline with Tween-80): 124 % of control
- T/C (endpoint: mean survival time, dose: 62.5 mg/kg/injection, schedule: Q01DX001 (ip), vehicle: water): 121 % of control and 122 % of control
- T/C (endpoint: mean survival time, dose: 80.0 mg/kg/injection, schedule: Q03DX003 (ip), vehicle: saline): 192 % of control
- T/C (endpoint: mean survival time, dose: 80.0 mg/kg/injection, schedule: Q04DX003 (ip), vehicle: saline): 187 % of control
- T/C (endpoint: mean survival time, dose: 100.0 mg/kg/injection, schedule: Q01DX001 (ip), vehicle: DMSO): 158 % of control
- T/C (endpoint: mean survival time, dose: 108.0 mg/kg/injection, schedule: Q01DX001 (ip), vehicle: saline): 164 % of control
- T/C (endpoint: mean survival time, dose: 108.0 mg/kg/injection, schedule: Q01DX001 (ip), vehicle: water): 169 % of control
- T/C (endpoint: mean survival time, dose: 125.0 mg/kg/injection, schedule: Q01DX001 (ip), vehicle: Klucel (hydroxypropylcellulose) (HPC)): 170 % of control
- T/C (endpoint: mean survival time, dose: 125.0 mg/kg/injection, schedule: Q01DX001 (ip), vehicle: saline with Tween-80): 150 % of control and 159 % of control
- T/C (endpoint: mean survival time, dose: 125.0 mg/kg/injection, schedule: Q01DX001 (ip), vehicle: water): 156 % of control and 173 % of control
- T/C (endpoint: mean survival time, dose: 133.0 mg/kg/injection, schedule: Q01DX001 (ip), vehicle: saline): 167 % of control
- T/C (endpoint: mean survival time, dose: 135.0 mg/kg/injection, schedule: Q01DX001 (ip), vehicle: saline): 158 % of control and 171 % of control
- T/C (endpoint: mean survival time, dose: 150.0 mg/kg/injection, schedule: Q01DX001 (ip), vehicle: water): 172 % of control
- T/C (endpoint: mean survival time, dose: 160.0 mg/kg/injection, schedule: Q01DX009 (ip), vehicle: saline): 124 % of control
- T/C (endpoint: mean survival time, dose: 180.0 mg/kg/injection, schedule: Q01DX001 (ip), vehicle: water): 176 % of control
- T/C (endpoint: mean survival time, dose: 196.0 mg/kg/injection, schedule: Q01DX001 (ip), vehicle: saline): 201 % of control
- T/C (endpoint: mean survival time, dose: 200.0 mg/kg/injection, schedule: Q01DX001 (ip), vehicle: Klucel (hydroxypropylcellulose) (HPC)): 164 % of control and 198 % of control
- T/C (endpoint: mean survival time, dose: 200.0 mg/kg/injection, schedule: Q01DX001 (ip), vehicle: other): 189 % of control
- T/C (endpoint: mean survival time, dose: 200.0 mg/kg/injection, schedule: Q01DX005 (ip), vehicle: water): 191 % of control
- T/C (endpoint: mean survival time, dose: 200.0 mg/kg/injection, schedule: Q04DX003 (ip), vehicle: saline): 205 % of control
- T/C (endpoint: mean survival time, dose: 250.0 mg/kg/injection, schedule: Q01DX001 (ip), vehicle: saline with Tween-80): 190 % of control
- T/C (endpoint: mean survival time, dose: 250.0 mg/kg/injection, schedule: Q01DX001 (ip), vehicle: water): 188 % of control and 261 % of control and 280 % of control
- T/C (endpoint: mean survival time, dose: 320.0 mg/kg/injection, schedule: Q04DX003 (ip), vehicle: saline): 117 % of control
- T/C (endpoint: mean survival time, dose: 400.0 mg/kg/injection, schedule: Q01DX001 (ip), vehicle: Klucel (hydroxypropylcellulose) (HPC)): 187 % of control
- T/C (endpoint: mean survival time, dose: 400.0 mg/kg/injection, schedule: Q01DX001 (ip), vehicle: other): 183 % of control
- T/C (endpoint: mean survival time, dose: 450.0 mg/kg/injection, schedule: Q01DX001 (ip), vehicle: saline): 209 % of control
- T/C (endpoint: mean survival time, dose: 500.0 mg/kg/injection, schedule: Q01DX001 (ip), vehicle: Klucel (hydroxypropylcellulose) (HPC)): 173 % of control
- T/C (endpoint: mean survival time, dose: 500.0 mg/kg/injection, schedule: Q01DX001 (ip), vehicle: saline with Tween-80): 197 % of control
- T/C (endpoint: mean survival time, dose: 500.0 mg/kg/injection, schedule: Q01DX001 (ip), vehicle: water): 253 % of control and 223 % of control and 271 % of control
- T/C (endpoint: median survival time, dose: 12.5 mg/kg/injection, schedule: Q01DX009 (ip), vehicle: saline): 120 % of control and 122 % of control
- T/C (endpoint: median survival time, dose: 20.0 mg/kg/injection, schedule: Q01DX009 (ip), vehicle: water): 121 % of control
- T/C (endpoint: median survival time, dose: 25.0 mg/kg/injection, schedule: Q01DX001 (ip), vehicle: saline): 117 % of control and 118 % of control
- T/C (endpoint: median survival time, dose: 25.0 mg/kg/injection, schedule: Q01DX001 (ip), vehicle: water): 113 % of control
- T/C (endpoint: median survival time, dose: 31.25 mg/kg/injection, schedule: Q01DX001 (ip), vehicle: water): 116 % of control and 119 % of control (2×)
- T/C (endpoint: median survival time, dose: 40.0 mg/kg/injection, schedule: Q01DX009 (ip), vehicle: water): 153 % of control
- T/C (endpoint: median survival time, dose: 50.0 mg/kg/injection, schedule: Q01DX005 (ip), vehicle: saline): 169 % of control
- T/C (endpoint: median survival time, dose: 50.0 mg/kg/injection, schedule: Q01DX009 (ip), vehicle: saline): 178 % of control and 182 % of control
- T/C (endpoint: median survival time, dose: 50.0 mg/kg/injection, schedule: Q03DX003 (ip), vehicle: saline): 162 % of control
- T/C (endpoint: median survival time, dose: 62.5 mg/kg/injection, schedule: Q01DX001 (ip), vehicle: water): 151 % of control
- T/C (endpoint: median survival time, dose: 66.0 mg/kg/injection, schedule: Q07DX003 (sc), vehicle: saline): 155 % of control and 162 % of control
- T/C (endpoint: median survival time, dose: 100.0 mg/kg/injection, schedule: Q01DX001 (ip), vehicle: water): 155 % of control and 160 % of control
- T/C (endpoint: median survival time, dose: 100.0 mg/kg/injection, schedule: Q01DX009 (ip), vehicle: saline): 114 % of control
- T/C (endpoint: median survival time, dose: 100.0 mg/kg/injection, schedule: Q03DX003 (ip), vehicle: saline): 202 % of control
- T/C (endpoint: median survival time, dose: 108.0 mg/kg/injection, schedule: Q01DX001 (iv), vehicle: saline): 171 % of control
- T/C (endpoint: median survival time, dose: 125.0 mg/kg/injection, schedule: Q01DX001 (ip), vehicle: water): 183 % of control
- T/C (endpoint: median survival time, dose: 150.0 mg/kg/injection, schedule: Q01DX001 (ip), vehicle: saline): 169 % of control
- T/C (endpoint: median survival time, dose: 250.0 mg/kg/injection, schedule: Q01DX001 (ip), vehicle: water): 173 % of control
- T/C (endpoint: median survival time, dose: 330.0 mg/kg/injection, schedule: Q07DX003 (ip), vehicle: saline): 210 % of control
- T/C (endpoint: median survival time, dose: 450.0 mg/kg/injection, schedule: Q01DX001 (ip), vehicle: saline): 154 % of control
